# Experimental data as given in patent publication US11782064B2, “Methods for simultaneous measurement of multiple biological signals from spectrally identical fluorescent reporters” (Massachusetts Institute of Technology, priority 2019, dated 2023).
# Test system: cultured mouse hippocampal neurons
# Assay: Multiplexed imaging of four or five reporters under forskolin, PMA or DHPG
# Type: cell-based
# Protocol: Live neuron imaging was performed on a spinning disk confocal microscope (a Yokogawa® CSU-W1 Confocal Scanner Unit on a Nikon® Eclipse T1 microscope) equipped with a 40×1.15 NA water immersion objective (Nikon® MRD77410) and a Zyla® PLUS 4.2 Megapixel camera controlled by NIS-Elements® AR software. The filter set for GFP was used for imaging GFP intensity-based reporters (GCaMP6f and cAMPr), and the filter set for GFP and the 405 nm excitation filter was used for imaging 488 nm/405 nm excitation ratiometric reporters (ExRaiAKAR and ExRaiCKAR). The filter set for RFP was used for imaging RFP intensity-based reporters (RAB_EKARev). For electrophysiological characterizations of GCaMP6f and S1-GCaMP6f (FIGS. 8D-G, 9A-Q), neurons were recorded in the GFP emission channel at a single focal plane at 20 milliseconds per frame (50 Hz). In the characterization and spatially multiplexed imaging experiments in FIGS. 9R-V, 10D-10G, 10M-10O, neurons were recorded in the GFP emission channel at a single focal plane at 50 milliseconds per frame (20 Hz). […]
Compound,signaling activities induced in neurons (100 μM DHPG for 3 minutes),signaling activities induced in neurons (100 ng/mL PMA for 3 minutes)
"N[C@H](C(=O)O)c1cc(O)cc(O)c1 [DHPG, (S)-3,5-Dihydroxyphenylglycine]","produced increases in cAMP, PKA, PKC, and ERK levels",–
"CCCCCCCCCCCCCC(=O)O[C@@H]1[C@@H](C)[C@@]2(O)[C@@H](C=C(CO)C[C@]3(O)C(=O)C(C)=C[C@@H]23)[C@@H]2C(C)(C)[C@]12OC(C)=O [PMA, phorbol 12-myristate 13-acetate]",–,increases of PKC activity
